Reference: patent US20160213777A1, “Novel Delivery Compositions and Methods of Using Same” (THOMAS JEFFERSON UNIVERSITY, priority 2013, published 2016)

Legend:
A549 cells [1] = assay: Cytotoxicity MTT assay of siRNA/nanoparticle formulations and erlotinib; assay type: cell-based
Procedure: MTT assay was used to determine the effect of siG12S loaded nanoparticles on the proliferation of A549 cells. Chemosensitivity of siG12S-treated cells to erlotinib was also assessed. Cells (1×10^4 per well) were seeded in 96 well plates and incubated at 37° C. in a humidified atmosphere with 5% carbon dioxide for 24 h. The cells were then treated with different formulations of nanoparticles, siG12S and erlotinib. Cells were incubated for 72 h. 10 μL of 12 Mm MTT reagent were then added to each well. This was then incubated at 37° C. for 4 h. The medium was aspirated and 50 μL of sterile DMSO was added to each well and mixed thoroughly with pipet. The cells were then incubated at 37° C. for 10 min. The plate was read at 540 and 650 nm.

A549 cells [2] = assay: Uptake/internalization of FITC-labeled bevacizumab particles (flow cytometry, fluorescence microscopy); assay type: cell-based; settings: 100 μg/mL FITC-labeled particles, 60 min
Procedure: (§1) A549 and MRC-5 cells (2×10^4 cells/well) were seeded in 8 well coated glass slides and incubated for 48 h. […] Cells were washed with PBS, fixed with 2% paraformaldehyde, and incubated at room temperature for 20 min. PBS washed cells were then blocked with 5% BSA for 30 min at room temperature. Cells were stained with AlexaFluoro-555 labeled wheat germ agglutinin (WGA) and 4′,6-diamidino-2-phenylindole (DAPI) to visualize plasma membrane and nucleus respectively. Cells were mounted and observed under a Leica DMI 6000B fluorescence microscope (Leica Microsystems, Exton, Pa.).
(§2) About 1 million cells/well were seeded in a 12 well plate and incubated for 48 h. […] The cells were trypsinized and centrifuged at 300 g for 5 min, and the pellet was washed and resuspended in 0.4% trypan blue (TB) solution in PBS to quench the extracellular FITC fluorescence. TB, while quenching the FITC fluorescence of non-internalized particles, causes them to fluoresce red whereas an internalized particle will fluoresce green. […] The samples were then analyzed by flow cytometry (BDFACS caliber). 10,000 cells were measured in each sample.
Mean fluorescence intensity obtained from this experiment was compared to that obtained when the A549 cells were treated with 100 μg/mL FITC-labeled bavacizumab nanoparticles alone. […]

[3] = Far-UV circular dichroism, secondary structure estimated with K2D2; assay type: physicochemical; settings: bevacizumab particles reconstituted in acetate buffer; K2D2 estimate
Procedure: CD measurements were performed with Jasco J-810 Spectropolarimeter (Jasco, Md., USA) operating at 20° C. using 0.5 mg/ml of reconstituted solutions of IgG nanoparticles in acetate buffer. CD spectra were obtained in the far UV region (260-190 nm) using a quartz cell of 0.1 path length in order to probe the stability of the secondary structure of the manufactured nanoparticles. A scanning speed of 50 nm/min with a 0.5-second response time was applied followed by five accumulations for each sample. The experiment was repeated in triplicate for each sample. Surfactants dissolved in the acetate buffer at corresponding concentrations were used as blanks. Signals from blanks were subtracted from sample signals. The CD signals were converted to mean residue weight ellipticity and the percentage of the secondary structure retained was estimated using the K2D2 software.
Far UV CD was used to probe for perturbations in the secondary structure of the antibodies following reconstitution in acetate buffer (pH 6). This was done to test whether the secondary structure of the antibodies was still intact, as major perturbation in the secondary structure of proteins may lead to loss or reduction of biological activity.

A549 cells [4] = assay: Cytotoxicity MTT assay of bevacizumab particles; assay type: cell-based; settings: 72 h
Procedure: Cells (1×10^4 cells/well) were seeded in 96 well plates and incubated at 37° C. in a humidified air atmosphere with 5% carbon dioxide for 48 h. […] At the end of incubation (after 72 h), MTT reagent was added to each well and incubated for 3 h.
The medium was aspirated, and 100 μL of DMSO was added. The plate was read at 560 nm. Cells treated with DMSO and relevant surfactants were used as a control.
The control contained the appropriate concentrations of the relevant surfactant. (FIGS. 16-18).

[5] = Photon correlation spectroscopy (PCS): particle size and zeta potential, bevacizumab nanoparticles; assay type: physicochemical; settings: 5 mg/ml bevacizumab solution
Procedure: Particle size (by intensity) and zeta potential measurements were performed by PCS using Zetasizer Nano ZS (Malvern Instruments, U.K.). The pellets formed after centrifugation at 6,500 rpm for 5 min were thoroughly rinsed and resuspended in deionized water by vortexing. The samples were then sonicated for approximately 5 min. Intensity autocorrelation was measured at a scattering angle (θ) of 173° at 25° C. The Z-average and polydispersity index (PDI) were recorded in triplicate. For zeta potential measurement, the samples were loaded into a universal dip cell (Malvern Instruments, U.K.) before recording the zeta potential in triplicate.
The surfactants seemed to have a concentration-dependent influence on the size and zeta potential of the nanoparticles. […] According to the Manufacturer's Manual, PCS is based on Brownian motion and particles with size above 10 μm tend to quickly sediment. In certain embodiments, under these circumstances, size recorded by the instrument may be due to artifact. […] For surfactant controls, distinct concentrations of the surfactants used in the nanoprecipitation process were dissolved in 0.01 N HCl and titrated with 0.1 N NaOH up to pH 8.4. In the case of nanoparticles, an increase in size was observed as the concentration of the non-ionic surfactant in the precipitation medium increased.

MRC-5 cells = assay: Uptake/internalization of FITC-labeled bevacizumab particles (flow cytometry, fluorescence microscopy); assay type: cell-based; settings: 100 μg/mL FITC-labeled particles, 60 min
Procedure: as §1
as §2, with “sample. […]” for “sample.”
A549 and MRC-5 cell lines were incubated with FITC-labeled nanoparticles for 15 and 60 minutes. The cells were then washed with D-PBS and extracellular florescence was quenched with trypan blue so that only internalized cells were analyzed. 10,000 cells were measured in each sample.

[6] = Scanning electron microscopy (SEM) particle size estimate; assay type: physicochemical
Description: The morphology of the manufactured nanoparticles and the unprocessed IgG was observed by scanning electron microscopy using the Zeiss Supra 50VP system (Zeiss, Germany). Powders were mounted onto aluminum stubs using double sided adhesive tape and were made electrically conductive by coating in a thin layer of gold. The coated samples were then examined under microscope operated at an acceleration voltage of 5 kV.

[7] = in water; cited from earlier work
KRAS = assay: In vitro gene silencing, western blot analysis; assay type: cell-based; settings: A549 cells, 50 nM siRNA, 96 h
Procedure: A549 cells were transfected 24 h after seeding in a 6-well plate at density of 2×10^5/well. Naked siG12S and control siRNA (Thermal Scientific, Amarillo, Tex.) were transfected with lipofectamine RNAimax transfection reagent (Invitrogen). siRNA-loaded IP and IgG nanoparticles were incubated with the cells at 37° C. in a humidified air environment with 5% carbon dioxide for 96 h. The total concentration of siRNA used in all experiments was 50 nM.
Cells were washed twice with ice-cold PBS and then lysed in M-Per mammalian lysis buffer (Thermo Scientific). The protein concentration of the lysates was determined with the Bradford reagent (Bio Rad), and equal amounts of protein were subjected to SDS-PAGE using a 10% gel. Separated proteins were transferred to a nitrocellulose membrane, which was then exposed to 5% nonfat dried milk in TBS containing 0.1% Tween 20 (0.1% TBST) for 1 h at room temperature and incubated overnight at 4° C. with antibodies against KRAS (Abcam, Cambridge, Mass.) or actin (Sigma). The membranes were then washed with 0.1% TBST before being incubated with horseradish peroxidase-conjugated goat antibodies to rabbit (Santa Cruz Biotechnology). Immune complexes were detected with chemiluminescence reagents (Perkin-Elmer Life Science).

serum nuclease = assay: siRNA stability in serum (50% FBS, gel electrophoresis); assay type: in vitro ADME; settings: 37° C., up to 48 h
Procedure: IgG-poloxamer-188 nanoparticles (IP-nanoparticles) loaded with siG12S, IgG nanoparticles loaded with siG12S and naked siG12S were incubated in F12K medium containing 50% FBS at 37° C. Aliquots of 5 μl samples were taken at time points up to 48 h. Samples were immediately mixed with 2% SDS, and 5 μl TBE urea sample buffer. The mixture was then heated at 70° C. for 3 minutes in order to deactivate the nuclease enzyme in the serum. The integrity of the siRNA was then analyzed using 15% TBE-ureal gel. siRNA bands were visualized by ethidium bromide staining.
Serum stability was assessed by incubating the naked siRNA and siRNA-loaded nanoparticles in 50% serum and the integrity of the siRNA assessed using gel electrophoresis at different time points. FIG. 41 illustrates the finding that naked siRNA was intact immediately after incubation but degraded after 1 h. In contrast, siRNA in IP nanoparticles was intact after 48 h. siRNA in IgG-nanoparticles was also intact up to 24 h. However, IgG-nanoparticles were not able to protect the siRNA after 24 h.

TNF-α = assay: Immunogenicity and inflammatory reaction in murine macrophages (ELISA); assay type: cell-based; settings: RAW 264.7, 24 h
Procedure: (§3) RAW 264.7 murine macrophage cells were seeded in a 96 well plate at a density of 1.5×10^5/well at 37° C. in humidified air with 5% carbon dioxide for 24 h. The cells were then treated with 100 μg/mL of LPS, naked siG12S, siG12S-loaded IP-nanoparticles, siG12S-loaded IgG-nanoparticles and culture medium seperately for 24 h. TNF-α and IL-6 concentrations in supernatant from cultured cells were analyzed using the respective ELISA kit according to the manufacturer's instructions.

IL-6 = assay: as above; assay type: cell-based; settings: RAW 264.7, 24 h
Procedure: as §3

C#Cc1cccc(Nc2ncnc3cc(OCCOC)c(OCCOC)cc23)c1 [erlotinib]
sensitivity of A549 cells to erlotinib (A549 cells [1]; alone or with siG12S (50 nM)-loaded IP nanoparticles): resistant

bevacizumab [Unprocessed bevacizumab]
internalization by A549 cells (A549 cells [2]): not internalized
% alpha helix [3]: 7.52%
% β-sheet [3]: 32.19%
IC50 (A549 cells [4]): ~1800 nM
Zeta potential (mV) [5]: −4.6 ± 0.3 mV
internalization by MRC-5 cells (MRC-5 cells): not internalized
particle size estimated from SEM [6]: approximately 20 μm

Polyoxyethylene (20) sorbitan monolaurate [Tween 20]
critical micelle concentration (CMC) [7]: 0.0075%

naked siG12S: siRNA against mutated KRAS G12S; sense GUUGGAGCUAGUGGCGUAGdTdT (SEQ ID NO:1), antisense SEQ ID NO:2 (sense GUUGGAGCUAGUGGCGUAGNN; antisense CUACGCCACUAGCUCCAACNN; dTdT overhangs, chemistry not fully specified)
KRAS expression (knockdown) (KRAS): major reduction in KRAS expression
growth of A549 cells (A549 cells [1]; 50 nM siRNA, 72 h): did not inhibit the growth
time siRNA remained intact in serum (serum nuclease): < 1 h
production of TNF-α (TNF-α): upgraded the production
production of IL-6 (IL-6): upgraded the production

polyethylene glycol monooleyl ether [Brij 97]
critical micelle concentration (CMC) [7]: 0.029%

Polyoxyethylene (80) sorbitan monooleate [Tween 80]
critical micelle concentration (CMC) [7]: 0.0017%
